We go through 18 compounds from patent US20240360148A1 (SUVALENT THERAPEUTICS, INC., priority 2021, published 2024).

The target of one assay is SAE1 (Homo sapiens (Human), UniProt Q9UBE0+Q9UBT2). The assay is described as follows: SAE High Throughput Biochemical Assay (HTRF), 15 min preincubation. The note with it: read-out: 15 min preincubation HTRF IC50 (μM) Ave, SAE1 12.5 nM, ATP 100 μM. Put shortly: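 HTRF detection of SUMO transfer from SUMO-GST to UBC9-His (40 nM each) by SAE1 at 12.5 nM used 100 μM ATP in pH 7.5 HEPES buffer with 10 mM MgCl2 and 0.1% BSA. Enzyme and compound were preincubated 15 min at RT and the reaction ran 45 min, with readings after 2 h and overnight.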

Assay [1] deals with sumoylation levels (SUMO 2/3 conjugates) in HCT-116 cells. The assay is described as follows: HCT-116 4 Hour Cell Assay (Western, SUMO 2/3 conjugates). It counts as cell-based. The note with it: 4 h treatment, Anti-Sumo 2-3 immunoblot, read-out: HCT-116 Western 4 h IC50 (μM) Ave. As to the method:
This protocol describes the procedures used to assess the effects of compounds of interest on sumoylation levels. Immunoblot of SUMO 2/3 conjugates are performed and IC50 curves are generated upon quantification of sumoylations bands. HCT-116 cells are seeded in a 12 well plate (500,000 cells/well). The following day the cells are treated with compounds of interest (resuspended in DMSO) for 4 hours (11 concentrations with a three-fold dilution; starting concentration 25 μM) Following 4 hours of incubation the cells are washed with ice cold PBS 1×and protein extraction is performed with RIPA buffer supplemented with phosphatases and proteases inhibitors, 25 mM of NEM and 50 units/mL of Benzonase. Samples undergo centrifugation at 13,000 RPM, 4° C., for 10 minutes and the supernatant is collected. Protein quantification is performed using BCA. Non-Reducing Laemmli Buffer is added to the samples. Samples are heated at 75° C. for 10 minutes, and are centrifuged for 3 minutes at 9000 RPM Nupage 4-12% Bis Tris gels and 1× MOPS buffer (Fisher Scientific)+1× NuPAGE Antioxidant (Invitrogen) are used to perform the SDS-PAGE gel electrophoresis (20 to 40 μg of proteins are loaded in the gels). Proteins are then transferred to PVDF membranes and the level of total proteins are measured by staining with Revert Total Protein Stain and the fluorescent bands are acquired using the LI-COR FC (700 nm for 1 min) Membranes are blocked for 5 minutes with Bio-Rad Blocking Buffer and are subsequently incubated over night at 4° C. with Anti-Sumo 2-3 mAb (M BL #M114-3, 1:1000 in Bio-Rad Blocking Buffer, 0.2% Tween 20) Membranes are washed with 1×TBS-T (3 times for 5 minutes) and sumoylation is detected using Li-cor IRDye 800CW Goat anti-Mouse IgG secondary antibody (1:10,000 dilution) upon 1 hour of incubation in blocking buffer with 0.2% Tween 20 and 0.01% SDS. After the incubation, the membranes are washed with 1×TBS-T (3 times for 5 minutes). To visualize the fluorescent bands the membranes are scanned with LI-COR FC (700 nm for 1 min and […] for 2 mins). Sumoylation levels are quantified upon normalization with total protein levels, using the LI-COR Image Studio Lite 5.2 Software.
In general terms: In western blotting, separated proteins are transferred to a membrane and probed.

SMILES strings stand for the structures. Like-named read-outs stand apart in the source and are kept apart here.

Chain of SAE1 (Q9UBE0 whole entry): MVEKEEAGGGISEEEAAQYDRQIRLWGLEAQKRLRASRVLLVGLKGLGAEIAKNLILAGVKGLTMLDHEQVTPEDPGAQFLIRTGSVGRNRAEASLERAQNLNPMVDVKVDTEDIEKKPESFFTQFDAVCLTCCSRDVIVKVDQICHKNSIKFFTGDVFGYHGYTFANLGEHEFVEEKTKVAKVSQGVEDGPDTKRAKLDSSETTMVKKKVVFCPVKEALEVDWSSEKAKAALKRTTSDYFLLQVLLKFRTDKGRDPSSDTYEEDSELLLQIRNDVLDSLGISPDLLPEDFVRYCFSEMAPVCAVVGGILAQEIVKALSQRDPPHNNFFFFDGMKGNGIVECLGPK
Chain of SAE1 (Q9UBT2 whole entry): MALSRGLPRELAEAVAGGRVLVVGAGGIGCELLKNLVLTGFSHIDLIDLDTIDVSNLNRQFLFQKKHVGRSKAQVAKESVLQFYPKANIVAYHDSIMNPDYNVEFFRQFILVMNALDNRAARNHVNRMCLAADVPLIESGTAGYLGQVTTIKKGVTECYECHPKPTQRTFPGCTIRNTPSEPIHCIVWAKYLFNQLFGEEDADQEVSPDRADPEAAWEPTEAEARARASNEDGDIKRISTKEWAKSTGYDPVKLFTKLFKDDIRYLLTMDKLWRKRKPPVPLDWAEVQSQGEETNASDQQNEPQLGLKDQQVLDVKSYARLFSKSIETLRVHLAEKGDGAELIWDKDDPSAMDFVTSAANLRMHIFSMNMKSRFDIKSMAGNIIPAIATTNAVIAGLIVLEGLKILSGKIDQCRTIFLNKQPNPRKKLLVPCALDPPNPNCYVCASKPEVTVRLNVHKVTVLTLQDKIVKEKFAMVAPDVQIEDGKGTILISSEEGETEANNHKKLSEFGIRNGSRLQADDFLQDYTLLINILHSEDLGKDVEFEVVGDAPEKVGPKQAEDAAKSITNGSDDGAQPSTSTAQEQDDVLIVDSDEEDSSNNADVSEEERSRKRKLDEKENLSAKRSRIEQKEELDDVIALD

Consider `CCn1cc(-c2ccccc2[C@@H]2CN(C(=O)/C=C/CNC(C)(C)C)Cc3sc(C#N)cc32)c(C(F)(F)F)n1` [Example 101, (S, E)-6-(4-(tert-Butylamino)but-2-enoyl)-4-(2-(1-ethyl-3-(trifluoromethyl)-1 H-pyrazol-4-yl)phenyl)-4,5,6,7-tetrahydrothieno[2,3-c]pyridine-2-carbonitrile], for which the IC50 at SAE1 stood at 2.24 µM; in assay [1] (Homo sapiens, HCT-116, 4 h) it was 0.732 µM.

Consider `CCn1cc(-c2ccccc2[C@@H]2CN(C(=O)/C=C/CNC3(C)CCOCC3)Cc3sc(C#N)cc32)c(C(F)(F)F)n1` [Example 96, (S,E)-4-(2-(1-Ethyl-3-(trifluoromethyl)-1H-pyrazol-4-yl)phenyl)-6-(4-((4-methyltetrahydro-2H pyran-4-yl)amino)but-2-enoyl)-4,5,6,7-tetrahydrothieno[2,3-c]pyridine-2-carbonitrile], for which the IC50 on SAE1 stood at 2.92 µM; in assay [1] (Homo sapiens, HCT-116, 4 h) it was 2.79 µM.

On to `CCn1cc(-c2ccccc2[C@@H]2CN(C(=O)/C=C/[C@@H]3C[C@H](C)CN3)Cc3sc(C#N)cc32)c(C(F)(F)F)n1` [Example 80, (S)-4-(2-(1-Ethyl-3-(trifluoromethyl)-1H pyrazol-4-yl)phenyl)-6-((E)-3-((2S,4S)-4-methylpyrrolidin-2-yl)acryloyl)-4,5,6,7-tetrahydrothieno[2,3-c]pyridine-2-carbonitrile], for which the IC50 on SAE1 was found to be 1.24 µM; in assay [1] (Homo sapiens, HCT-116, 4 h), 0.212 µM.

`CCn1cc(-c2cc(NS(C)(=O)=O)ccc2C2CN(C(=O)/C=C/CN(C)C)Cc3sc(C#N)cc32)c(C(F)(F)F)n1` (stereo not drawn) [Example 193, (E)-N-(4-(2-Cyano-6-(4-(dimethylamino)but-2-enoyl)-4,5,6,7-tetrahydrothieno[2,3-c]pyridin-4-yl)-3-(1-ethyl-3-(trifluoromethyl)-1 H-pyrazol-4-yl)phenyl)methanesulfonamide]: the IC50 on SAE1 is 9.08 µM; in assay [1] (Homo sapiens, HCT-116, 4 h) it was 8.85 µM.

Turning to `CCn1cc(-c2ccccc2[C@@H]2CN(C(=O)C#CCOC)Cc3sc(C#N)cc32)c(C(F)(F)F)n1` [Example 144, (S)-4-(2-(1-Ethyl-3-(trifluoromethyl)-1 H pyrazol-4-yl)phenyl)-6-(4-methoxybut-2-ynoyl)-4,5,6,7-tetrahydrothieno[2,3-c]pyridine-2-carbonitrile], the IC50 was 0.54 µM on SAE1 and 0.792 µM in assay [1] (Homo sapiens, HCT-116, 4 h).

As for `CCn1cc(-c2c(F)cccc2[C@@H]2CN(C(=O)/C=C/[C@@H]3C[C@H](OC)CN3)Cc3sc(C#N)cc32)c(C(F)(F)F)n1` [Example 119, (S)-4-(2-(1-Ethyl-3-(trifluoromethyl)-1H pyrazol-4-yl)-3-fluorophenyl)-6-((E)-3-((2S,4S)-4-methoxypyrrolidin-2-yl)acryloyl)-4,5,6,7-tetrahydrothieno[2,3-c]pyridine-2-carbonitrile], the IC50 was 0.44 µM on SAE1 and 0.121 µM in assay [1] (Homo sapiens, HCT-116, 4 h).

For the compound `CCn1cc(-c2ccccc2[C@@H]2CN(C(=O)C#CCN(C)C)Cc3sc(C#N)cc32)c(C(F)(F)F)n1` [Example 132, (S)-6-(4-(Dimethylamino)but-2-ynoyl)-4-(2-(1-ethyl-3-(trifluoromethyl)-1 H-pyrazol-4-yl)phenyl)-4,5,6,7-tetrahydrothieno[2,3-c]pyridine-2-carbonitrile], the IC50 at SAE1 was 0.18 µM; in assay [1] (Homo sapiens, HCT-116, 4 h), 0.547 µM.

For the compound `CC[C@H]1CNC(/C=C/C(=O)N2Cc3sc(C#N)cc3[C@H](c3cccc(F)c3-c3cn(CC)nc3C(F)(F)F)C2)C1` (stereo partly drawn) [Example 252, (S)-4-((S)-2-(1-ethyl-3-(trifluoromethyl)-1 H-pyrazol-4-yl)-3-fluorophenyl)-6-((E)-3-((2S,4R)-4-ethylpyrrolidin-2-yl)acryloyl)-4,5,6,7-tetrahydrothieno[2,3-c]pyridine-2-carbonitrile], the IC50 stood at 0.39 µM on SAE1 and 0.288 µM in assay [1] (Homo sapiens, HCT-116, 4 h).

`CCn1cc(-c2ccc(F)cc2C2CN(C(=O)/C=C/CN(C)C)Cc3sc(C#N)cc32)c(C(F)(F)F)n1` (stereo not drawn) [Example 180, (E)-6-(4-(Dimethylamino)but-2-enoyl)-4-(2-(1-ethyl-3-(trifluoromethyl)-1 H-pyrazol-4-yl)-5-fluorophenyl)-4,5,6,7-tetrahydrothieno[2,3-c]pyridine-2-carbonitrile]: the IC50 stood at 5.29 µM on SAE1 and 1.15 µM in assay [1] (Homo sapiens, HCT-116, 4 h).

Turning to `C=C(C(=O)N1Cc2sc(C#N)cc2[C@H](c2ccccc2-c2cn(CC)nc2C(F)(F)F)C1)C(F)(F)F` [Example 60, (S)-4-(2-(1-Ethyl-3-(trifluoromethyl)-1 H pyrazol-4-yl)phenyl)-6-(2-(trifluoromethyl)acryloyl)-4,5,6,7-tetrahydrothieno[2,3-c]pyridine-2-carbonitrile], the IC50 came to 1.36 µM on SAE1 and 2.59 µM in assay [1] (Homo sapiens, HCT-116, 4 h).

As for `CCn1cc(-c2c(F)cccc2[C@@H]2CN(C(=O)/C=C/CN)Cc3sc(C#N)c(C)c32)c(C(F)(F)F)n1` [Compound 224], the IC50 at SAE1 was found to be 0.172 µM; in assay [1] (Homo sapiens, HCT-116, 4 h), 0.106 µM.

Consider `Cn1cc(-c2c(F)cccc2[C@@H]2CN(C(=O)/C=C/[C@@H]3CCCN3)Cc3sc(C#N)cc32)c(C(F)(F)F)n1` [Example 128, (S)-4-(3-Fluoro-2-(1-methyl-3-(trifluoromethyl)-1H-pyrazol-4-yl)phenyl)-6-((E)-3-((S)pyrrolidin-2-yl)acryloyl)-4,5,6,7-tetrahydrothieno[2,3-c]pyridine-2-carbonitrile], for which the IC50 amounted to 0.75 µM at SAE1 and 0.0658 µM in assay [1] (Homo sapiens, HCT-116, 4 h).

For the compound `CCn1cc(-c2c(F)cccc2[C@@H]2CN(C(=O)/C=C/[C@@H]3C[C@H]4C[C@H]4N3)Cc3sc(C#N)cc32)c(C(F)(F)F)n1` [Example 92, (S)-6-((E)-3-((IR,3S,5R)-2-azabicyclo[3.1.0]hexan-3-yl)acryloyl)-4-(2-(1-ethyl-3-(trifluoromethyl)-1H pyrazol-4-yl)-3-fluorophenyl)-4,5,6,7-tetrahydrothieno[2,3-c]pyridine-2-carbonitrile], the half-maximal inhibitory concentration (IC50) came out at 0.4 µM at SAE1 and 0.451 µM in assay [1].

Turning to `CCn1cc(-c2c(F)cccc2[C@@H]2CN(C(=O)/C=C/CNC34CC(C3)C4)Cc3sc(C#N)cc32)c(C(F)(F)F)n1` [Example 246, (S, E)-6-(4-(bicyclo[1.1.1]pentan-1-ylamino)but-2-enoyl)-4-(2-(1-ethyl-3-(trifluoromethyl)-1 H-pyrazol-4-yl)-3-fluorophenyl)-4,5,6,7-tetrahydrothieno[2,3-c]pyridine-2-carbonitrile], the IC50 at SAE1 was determined as 1.65 µM; in assay [1] (Homo sapiens, HCT-116, 4 h), 0.483 µM.

As for `CCn1cc(-c2ccccc2[C@@H]2CN(C(=O)/C=C/[C@@H](N)CO)Cc3sc(C#N)cc32)c(C(F)(F)F)n1` [Example 74, (S)-6-((R, E)-4-Amino-5-hydroxypent-2-enoyl)-4-(2-(1-ethyl-3-(trifluoromethyl)-1 H-pyrazol-4-yl)phenyl)-4,5,6,7-tetrahydrothieno[2,3-c]pyridine-2-carbonitrile], the IC50 at SAE1 amounted to 2.84 µM; in assay [1] (Homo sapiens, HCT-116, 4 h), 2.24 µM.

For the compound `CCn1cc(-c2ccccc2[C@@H]2CN(C(=O)/C=C/C3CCCN3)Cc3sc(C#N)cc32)c(C(F)(F)F)n1` (stereo partly drawn) [Example 107, (4S)-4-(2-(1-Ethyl-3-(trifluoromethyl)-1 H-pyrazol-4-yl)phenyl)-6-((E)-3-(pyrrolidin-2-yl)acryloyl)-4,5,6,7-tetrahydrothieno[2,3-c]pyridine-2-carbonitrile], the IC50 on SAE1 was found to be 2.07 µM; in assay [1] (Homo sapiens, HCT-116, 4 h) it was 0.226 µM.

Regarding `CCn1cc(-c2ccccc2[C@@H]2CN(C(=O)/C=C/[C@@H]3CC4(CC4)CN3)Cc3sc(C#N)cc32)c(C(F)(F)F)n1` [Example 116, (S)-6-((E)-3-((S)—S-Azaspiro(2.4]heptan-6-yl)acryloyl)-4-(2-(1-ethyl-3-(trifluoromethyl)-1H pyrazol-4-yl)phenyl)-4,5,6,7-tetrahydrothieno[2,3-c]pyridine-2-carbonitrile], the IC50 at SAE1 was 1.49 µM; in assay [1] (Homo sapiens, HCT-116, 4 h), 0.202 µM.

As for `CCn1cc(-c2ccccc2[C@@H]2CN(C(=O)/C=C/[C@H]3CC(C)(C)CN3)Cc3sc(C#N)cc32)c(C(F)(F)F)n1` [Example 82, (S)-6-((E)-3-((R)-4,4-Dimethylpyrrolidin-2-yl)acryloyl)-4-(2-(1-ethyl-3-(trifluoromethyl)-1H pyrazol-4-yl)phenyl)-4,5,6,7-tetrahydrothieno[2,3-c]pyridine-2-carbonitrile], the IC50 was determined as 1.08 µM on SAE1 and 0.357 µM in assay [1] (Homo sapiens, HCT-116, 4 h).

In general, IC50 refers to the concentration that gives 50% inhibition.
